The numbers were not newly measured in patent US20070059365A1, “Novel formulation of ropinirole” (priority 2003, published 2007), which cites them from elsewhere.

The conditions of the series: in vivo.

With `CCCN(CCC)CCc1cccc2c1CC(=O)N2.Cl` [ropinirole, 4-(2-di-n-propylaminoethyl)-2(3H)-indolone hydrochloride], the half-life of ropinirole was 5 to 6 h.
